Values after ≈ are worked out from the molar mass of the structure shown.
Tests used:
Assay in all cases: MIC/MBC antibiotic sensitivity (CLSI)
[1] = system: Achromobacter xylosaxidans (HNA001); assay type: cell-based, Achromobacter xylosoxidans; details: Achromobacter xylosaxidans (HNA001)
Experimental: (§1) The new compounds of the invention were synthesized following the general method of preparation (Tetrahedron, 2001, 57, 1671-1675), from the reaction between an intermediary compound of the acyl thiourea and HgCl2 in presence of trimethylamine. The products were adequately characterized regarding its chemistry. The antibacterial activity of the new compounds was assayed against two Gram-positive reference strains: Staphylococcus aureus (ATCC6538) and Bacillus cereus (ATCC10876), a fermenting Gram-negative strain: Escherichia coli (ATCC25922), and 26 non-fermenting Gram-negative isolates, including 3 reference strains: Pseudomonas aeruginosa (PAO1), Bordetella bronchiseptica (9.73H+), and Inquilinus limosus (DSM16000), and 23 isolates recovered from patients suffering from cystic fibrosis, including one Achromobacter xylosoxidans isolate, and 22 isolates belonging to the Burkholderia cepacia complex. The later were selected because they presented resistance to a high number of antimicrobial compounds, among a panel of 125 clinical isolates previously analyzed for its resistance against 17 antimicrobial compounds (1,2). The antibiotic sensitivity studies were performed by applying two quantitative methods which allow to determine the minimum inhibitory concentration (MIC) and the minimum bactericidal concentration (MBC).
(§2) The compounds obtained in Examples 1 and 2 were assayed against 23 isolates recovered from the sputum of patients suffering from cystic fibrosis being treated at the Sor Maria Ludovica Children Hospital (La Plata, Buenos Aires, Argentina). Nineteen of these isolates were selected for being highly resistant to most of the antimicrobial agents of clinical use from a panel of 125 isolates previously characterized in Martina et al. (1). Reference strains were also included: Gram (+) bacteria: B. cereus and S. aureus, fermenting Gram (−) bacteria: E. coli, and non-fermenting Gram (−) bacteria: Inquilinus limosus (DSM16000), B. bronchiseptica, and Pseudomonas aeruginosa (PAO1). The antibiotic sensitivity studies were performed applying two quantitative methods which allow to determine the minimum inhibitory concentration (MIC) and the minimum bactericidal concentration (MBC) according to the criteria established by the Clinical and Laboratory Standards Institute (CLSI) (4). For comparative purposes, three antibiotics commonly used in the treatment of pulmonary infections in cystic fibrosis patients were included in the study: tobramycin, ceftazidime and meropenem.

[2] = system: Burkholderia multivorans (CBC 016); assay type: cell-based; details: Burkholderia multivorans (CBC 016)
Experimental: as §1, §2

[3] = system: Burkholderia cepacia (CBC 010); assay type: cell-based; details: Burkholderia cepacia (CBC 010)
Experimental: as §1, §2

[4] = system: Inquilinus limosus (DSM16000); assay type: cell-based
Experimental: as §1, §2

[5] = system: Burkholderia multivorans (CBC 018); assay type: cell-based; details: Burkholderia multivorans (CBC 018)
Experimental: as §1, §2

[6] = system: Burkholderia multivorans (CBC 020); assay type: cell-based; details: Burkholderia multivorans (CBC 020)
Experimental: as §1, §2

[7] = system: Staphylococcus aureus (ATCC6538); assay type: cell-based
Experimental: as §1, §2

[8] = system: Burkholderia cenocepacia (CBC 029); assay type: cell-based; details: Burkholderia cenocepacia (CBC 029)
Experimental: as §1, §2

[9] = system: Burkholderia cenocepacia (CBC 032); assay type: cell-based; details: Burkholderia cenocepacia (CBC 032)
Experimental: as §1, §2

[10] = system: Burkholderia multivorans (CBC 019); assay type: cell-based; details: Burkholderia multivorans (CBC 019)
Experimental: as §1, §2

[11] = system: Pseudomonas aeruginosa (PAO1); assay type: cell-based; details: Pseudomonas aeruginosa, P. aeruginosa (PAO1)
Experimental: as §1, §2

[12] = system: Burkholderia multivorans (CBC 022); assay type: cell-based; details: Burkholderia multivorans (CBC 022)
Experimental: as §1, §2

[13] = system: Burkholderia multivorans (CBC 021); assay type: cell-based; details: Burkholderia multivorans (CBC 021)
Experimental: as §1, §2

[14] = system: Burkholderia cenocepacia (CBC 036); assay type: cell-based; details: Burkholderia cenocepacia (CBC 036)
Experimental: as §1, §2

B. contaminans (HNBC001) = assay type: cell-based
Experimental: as §1, §2

[15] = system: Burkholderia cepacia (CBC 011); assay type: cell-based; details: Burkholderia cepacia (CBC 011)
Experimental: as §1, §2

[16] = system: Burkholderia cenocepacia (HE001); assay type: cell-based; details: Burkholderia cenocepacia (HE001)
Experimental: as §1, §2

[17] = system: Bacillus cereus (ATCC10876); assay type: cell-based
Experimental: as §1, §2

[18] = system: Burkholderia cenocepacia (CBC 031); assay type: cell-based; details: Burkholderia cenocepacia (CBC 031)
Experimental: as §1, §2

[19] = system: Burkholderia cenocepacia (CBC 024); assay type: cell-based; details: Burkholderia cenocepacia (CBC 024)
Experimental: as §1, §2

[20] = system: Burkholderia seminalis (CBC 042); assay type: cell-based; details: Burkholderia seminalis (CBC 042)
Experimental: as §1, §2

[21] = system: Burkholderia cenocepacia (CBC 023); assay type: cell-based; details: Burkholderia cenocepacia (CBC 023)
Experimental: as §1, §2

[22] = system: Burkholderia cenocepacia (CBC 033); assay type: cell-based; details: Burkholderia cenocepacia (CBC 033)
Experimental: as §1, §2

[23] = system: Escherichia coli (ATCC25922); assay type: cell-based
Experimental: as §1, §2

O=C(NC(=Nc1c(F)cc(F)cc1Br)Nc1c(F)cc(F)cc1Br)C12CC3CC(CC(C3)C1)C2 [H-BDF, N—(N,N′-bis(2-bromo-4,6-difluorophenyl)carbamimidoyl)adamantane-1-carboxamide]
MBC [1]: < 0.48 µg/mL | MIC ([1]; read-out: MIC): < 0.48 µg/mL | MBC ([2]; read-out: MBC): 7.81 µg/mL (≈ 12.9 µM) | MIC ([2]; read-out: MIC): 1.95 µg/mL (≈ 3.23 µM) | MBC [3]: 7.81 µg/mL (≈ 12.9 µM) | MIC ([3]; read-out: MIC): 3.9 µg/mL (≈ 6.46 µM) | MBC [4]: 7.81 µg/mL (≈ 12.9 µM) | MIC ([4]; read-out: MIC): 3.9 µg/mL (≈ 6.46 µM) | MBC ([5]; read-out: MBC): 7.81 µg/mL (≈ 12.9 µM) | MIC ([5]; read-out: MIC): 1.95 µg/mL (≈ 3.23 µM) | MBC [6]: 15.6 µg/mL (≈ 25.9 µM) | MIC ([6]; read-out: MIC): 3.9 µg/mL (≈ 6.46 µM) | MBC ([7]; Staphylococcus aureus, S. aureus (ATCC6538), read-out: MBC): 0.97 µg/mL (≈ 1.61 µM) | MIC ([7]; Staphylococcus aureus, S. aureus (ATCC6538), read-out: MIC): 0.24 µg/mL (≈ 0.398 µM) | Selectivity Index (SI) ([7]; ratio IC50 (THP-I) / MIC against S. aureus): 62 | MBC ([8]; read-out: MBC): 15.6 µg/mL (≈ 25.9 µM) | MIC ([8]; read-out: MIC): 3.9 µg/mL (≈ 6.46 µM) | MBC ([9]; read-out: MBC): 3.9 µg/mL (≈ 6.46 µM) | MIC ([9]; read-out: MIC): 1.95 µg/mL (≈ 3.23 µM) | MBC [10]: 7.81 µg/mL (≈ 12.9 µM) | MIC ([10]; read-out: MIC): 1.95 µg/mL (≈ 3.23 µM) | MBC ([11]; read-out: MBC): 3.9 µg/mL (≈ 6.46 µM) | MIC ([11]; read-out: MIC): 0.48 µg/mL (≈ 0.796 µM) | MBC [12]: 7.8 µg/mL (≈ 12.9 µM) | MIC ([12]; read-out: MIC): 3.9 µg/mL (≈ 6.46 µM) | MBC [13]: 3.9 µg/mL (≈ 6.46 µM) | MIC ([13]; read-out: MIC): 1.95 µg/mL (≈ 3.23 µM) | MBC ([14]; read-out: MBC): 7.81 µg/mL (≈ 12.9 µM) | MIC ([14]; read-out: MIC): 1.95 µg/mL (≈ 3.23 µM) | MBC (B. contaminans (HNBC001)): 0.97 µg/mL (≈ 1.61 µM) | MIC (B. contaminans (HNBC001); read-out: MIC): < 0.48 µg/mL | MBC [15]: 30.2 µg/mL (≈ 50 µM) | MIC ([15]; read-out: MIC): 1.95 µg/mL (≈ 3.23 µM) | MBC [16]: 61.2 µg/mL (≈ 102 µM) | MIC ([16]; read-out: MIC): 3.9 µg/mL (≈ 6.46 µM) | MBC ([17]; read-out: MBC): 1.95 µg/mL (≈ 3.23 µM) | MIC ([17]; read-out: MIC): 1.95 µg/mL (≈ 3.23 µM) | MBC ([18]; read-out: MBC): 7.81 µg/mL (≈ 12.9 µM) | MIC ([18]; read-out: MIC): 1.95 µg/mL (≈ 3.23 µM) | MBC ([19]; read-out: MBC): 7.81 µg/mL (≈ 12.9 µM) | MIC ([19]; read-out: MIC): 1.95 µg/mL (≈ 3.23 µM) | MBC [20]: 7.81 µg/mL (≈ 12.9 µM) | MIC ([20]; read-out: MIC): 0.96 µg/mL (≈ 1.59 µM) | MBC [21]: 3.9 µg/mL (≈ 6.46 µM) | MIC ([21]; read-out: MIC): 1.95 µg/mL (≈ 3.23 µM) | MBC ([22]; read-out: MBC): 15.6 µg/mL (≈ 25.9 µM) | MIC ([22]; read-out: MIC): 3.9 µg/mL (≈ 6.46 µM) | MBC ([23]; Escherichia coli, E. coli (ATCC25922), read-out: MBC): 1.95 µg/mL (≈ 3.23 µM) | MIC ([23]; Escherichia coli, E. coli (ATCC25922), read-out: MIC): 0.97 µg/mL (≈ 1.61 µM) | Selectivity Index (SI) ([23]; ratio IC50 (THP-I) / MIC for E. coli): 16
